These results are taken from patent CN104497008A, “取代噁唑烷酮类化合物及其使用方法和用途” (priority 2014, dated 2015).

Each structure is given as a SMILES string. Values after ≈ are worked out from the molar mass of the structure shown.

The nature of the series: Solubility test of the compounds. The note with it: water, 37 ℃, 24 h shaking, 40 rpm, HPLC; read-out: compound solubility. The format is physicochemical.
As to `CN1CCc2nc(C(=O)NCC3COC(=O)N3C(=O)Nc3ccc(Cl)cn3)sc2C1` (centres unmarked) [实施例8, N-(5-氯吡啶-2-基)-4-((5-甲基-4,5,6,7-四氢噻唑并[5,4-c]吡啶-2-甲酰氨基)甲基)-2-氧代噁唑烷-3-甲酰胺], the solubility at 24 h was found to be 150 µg/mL (≈ 333 µM).

`NC(=O)N1CCc2cc(N3C[C@H](CNC(=O)c4ccc(Cl)s4)OC3=O)sc2C1` [实施例3, (S)-2-(5-((5-氯噻吩-2-甲酰氨基)甲基)-2-氧代噁唑烷-3-基)-4,5-二氢噻吩并[2,3-c]吡啶-6(7H)-甲酰胺]: the solubility at 24 h was found to be 260 µg/mL (≈ 590 µM).

Turning to `CC(=O)N1CCc2cc(N3C[C@H](CNC(=O)c4ccc(Cl)s4)OC3=O)sc2C1` [实施例4, (S)-N-((3-(6-乙酰基-4,5,6,7-四氢噻吩并[2,3-c]吡啶-2-基)-2-氧代噁唑烷-5-基)甲基)-5-氯噻吩-2-甲酰胺], the solubility at 24 h is 130 µg/mL (≈ 295 µM).

As for `NC(=O)N1CCc2sc(N3C[C@H](CNC(=O)c4ccc(Cl)s4)OC3=O)cc2C1` [实施例1, (S)-2-(5-((5-氯噻吩-2-甲酰氨基)甲基)-2-氧代噁唑烷-3-基)-6,7-二氢噻吩并[3,2-c]吡啶-5(4H)-甲酰胺], the solubility at 24 h is 240 µg/mL (≈ 544 µM).

In the case of `CC(=O)N1CCc2sc(N3C[C@H](CNC(=O)c4ccc(Cl)s4)OC3=O)cc2C1` [实施例2, (S)-N-((3-(5-乙酰基-4,5,6,7-四氢噻吩并[3,2-c]吡啶-2-基)-2-氧代噁唑烷-5-基)甲基)-5-氯噻吩-2-甲酰胺], the solubility at 24 h came out at 110 µg/mL (≈ 250 µM).

Regarding `CN1CCc2nc(N3C[C@H](CNC(=O)c4ccc(Cl)s4)OC3=O)sc2C1` [实施例5, (S)-5-氯-N-((3-(5-甲基-4,5,6,7-四氢噻唑[5,4-c]吡啶-2-基)-2-氧代噁唑烷-5-基)甲基)噻吩-2-甲酰胺], the solubility at 24 h stood at 230 µg/mL (≈ 557 µM).

Consider `O=C(NC[C@H]1CN(c2sc3ccccc3c2Cl)C(=O)O1)c1ccc(Cl)s1` [实施例7, (S)-5-氯-N-((3-(3-氯苯并[b]噻吩-2-基)-2-氧代噁唑烷-5-基)甲基)噻吩-2-甲酰胺], for which the solubility at 24 h is 80 µg/mL (≈ 187 µM).

Turning to `CN1CCc2cc(N3C[C@H](CNC(=O)c4ccc(Cl)s4)OC3=O)sc2C1` [实施例6], the solubility at 24 h was 220 µg/mL (≈ 534 µM).

As usually defined, the solubility is the dissolved amount per volume that the medium holds.
